Experimental data reported in the NIST ThermoML archive (doi:10.1016/j.fluid.2012.11.006).
Where “and” joins values, the source holds several entries; their conditions need not be identical. Equal entries are not always repeated.

Columns and labels:
[1] = molar enthalpy of vaporization or sublimation
[2] = Molar enthalpy of transition or fusion; conditions: Crystal; DSC
[3] = molar heat capacity at constant pressure; conditions: 101.33 kPa, Crystal, Flow calorimetry
[4] = molar enthalpy of transition or fusion; conditions: Crystal, DSC
[5] = Crystal, Torsion effusion method

O=C(O)c1cc(Br)ccc1Br [2,5-dibromobenzoic acid]
[1]
Conditions	molar enthalpy [kcal/mol]
298.15 K, Crystal, Torsion-effucion	31.9
428 K, Liquid, DSC	22.2

Conditions	Molar enthalpy of transition or fusion [kcal/mol]
[2]	8.77

Conditions	molar enthalpy of transition or fusion [kcal/mol]	molar heat capacity at constant pressure	vapor or sublimation pressure [kPa]
[3], 288.2 K	–	216 J/K/mol and 215.9 J/K/mol	–
[3], 290.2 K	–	217.4 J/K/mol and 217.6 J/K/mol and 217.5 J/K/mol	–
[3], 292.2 K	–	219.4 J/K/mol and 219.3 J/K/mol	–
[3], 294.2 K	–	220.4 J/K/mol and 220.6 J/K/mol and 220.5 J/K/mol	–
[3], 296.2 K	–	221.5 J/K/mol and 221.4 J/K/mol and 221.7 J/K/mol	–
[3], 298.2 K	–	222.9 J/K/mol and 223 J/K/mol and 223.1 J/K/mol	–
[3], 300.2 K	–	224.7 J/K/mol and 224.8 J/K/mol	–
[3], 302.2 K	–	225.9 J/K/mol and 225.6 J/K/mol and 225.8 J/K/mol	–
[3], 304.2 K	–	227 J/K/mol and 227.3 J/K/mol and 227.1 J/K/mol	–
[3], 306.2 K	–	228.3 J/K/mol and 228.4 J/K/mol and 228.5 J/K/mol	–
[3], 308.2 K	–	229.8 J/K/mol and 229.6 J/K/mol	–
[3], 310.2 K	–	231.7 J/K/mol and 231.6 J/K/mol and 231.5 J/K/mol	–
[3], 312.2 K	–	232.5 J/K/mol and 232.4 J/K/mol and 232.3 J/K/mol	–
[3], 314.2 K	–	234 J/K/mol and 233.9 J/K/mol and 234.1 J/K/mol	–
[3], 316.2 K	–	235.3 J/K/mol and 235.2 J/K/mol	–
[3], 318.2 K	–	237 J/K/mol and 236.8 J/K/mol and 236.9 J/K/mol	–
[3], 320.2 K	–	238.4 J/K/mol and 238.5 J/K/mol and 238.3 J/K/mol	–
[3], 322.2 K	–	239.1 J/K/mol and 239 J/K/mol	–
[3], 324.2 K	–	240.7 J/K/mol and 240.5 J/K/mol and 240.4 J/K/mol	–
[3], 326.2 K	–	242.4 J/K/mol and 242.1 J/K/mol and 242.3 J/K/mol	–
[4], 298.15 K	31.6	–	–
[4], 428 K	30.7	–	–
[5], 346.8 K	–	–	4.7e-05
[5], 348.6 K	–	–	5.7e-05
[5], 350 K	–	–	7.6e-05
[5], 350.2 K	–	–	7.6e-05
[5], 352.2 K	–	–	9.5e-05
[5], 353 K	–	–	0.000114
[5], 353.5 K	–	–	0.000114
[5], 353.6 K	–	–	0.000114
[5], 354.3 K	–	–	0.000133
[5], 354.8 K	–	–	0.000133
[5], 356.1 K	–	–	0.000171
[5], 356.2 K	–	–	0.000152
[5], 356.8 K	–	–	0.000171
[5], 357.3 K	–	–	0.000189
[5], 357.8 K	–	–	0.000208
[5], 358.3 K	–	–	0.000208
[5], 359.2 K	–	–	0.000246
[5], 359.6 K	–	–	0.000227
[5], 360.2 K	–	–	0.000246
[5], 360.4 K	–	–	0.000265
[5], 361.5 K	–	–	0.000303
[5], 361.7 K	–	–	0.000303
[5], 362.4 K	–	–	0.00036
[5], 362.5 K	–	–	0.000322
[5], 363 K	–	–	0.000379
[5], 363.8 K	–	–	0.000388
[5], 364.6 K	–	–	0.000493
[5], 364.7 K	–	–	0.000474
[5], 365.6 K	–	–	0.000474
[5], 366.2 K	–	–	0.000493
[5], 367.3 K	–	–	0.000606
[5], 367.6 K	–	–	0.000701
[5], 367.7 K	–	–	0.000682
[5], 369.1 K	–	–	0.000777
[5], 369.7 K	–	–	0.000834
[5], 370.5 K	–	–	0.000853
[5], 370.7 K	–	–	0.000947
[5], 371.2 K	–	–	0.001023
[5], 372.3 K	–	–	0.001099
